The data set relates to rodent carcinogenicity bioassays, tumor incidence. Nature of the data set: CCRIS carcinogenicity studies. In outline:
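NCI-built, expert-reviewed records of carcinogenicity and related test outcomes (mutagenicity, tumor promotion/inhibition) compiled from published and report sources, historical span 1985-2011, not updated.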

Calls of active or inactive are those of the source. The rule behind the calls is not given here.

Consider `CNc1ccc(N(CCO)CCO)cc1[N+](=O)[O-]`, for which the carcinogen call (Species: MOUSE, Strain/Sex: B6C3F1/FEMALE, Route: ORAL, Dose: 0, 3000, 6000 PPM IN DIET FOR 103 WK FOR 103 WK (STUDY DURATION: 105 WK), Dose: 0, 3000, 6000 PPM IN DIET FOR 103 WK FOR 103 WK (STUDY DURATION: 105 WK), Tumor Site: Type of Lesion: LIVER: HEPATOCELLULAR CARCINOMA, HEPATOCELLULAR ADENOMA OR CARCINOMA) was “active; positive”; the carcinogen call (Species: MOUSE, Strain/Sex: B6C3F1/MALE, Route: ORAL, Dose: 0, 1500, 3000 PPM IN DIET FOR 103 WK FOR 103 WK (STUDY DURATION: 105 WK), Dose: 0, 1500, 3000 PPM IN DIET FOR 103 WK FOR 103 WK (STUDY DURATION: 105 WK), Tumor Site: Type of Lesion: LIVER: HEPATOCELLULAR ADENOMA, HEPATOCELLULAR CARCINOMA, THYROID GLAND: FOLLICULAR CELL ADENOMA) was “active; positive”; the carcinogen call (Species: RAT, Strain/Sex: F344/FEMALE, Route: ORAL, Dose: 0, 1500, 3000 PPM IN DIET FOR 103 WK FOR 103 WK (STUDY DURATION: 105 WK), Dose: 0, 1500, 3000 PPM IN DIET FOR 103 WK FOR 103 WK (STUDY DURATION: 105 WK), Tumor Site: Type of Lesion: LUNG: ALVEOLAR/BRONCHIOLAR ADENOMA OR CARCINOMA, UTERUS: ENDOMETRIAL STROMAL POLYP) is “active; positive”; the carcinogen call (Species: RAT, Strain/Sex: F344/MALE, Route: ORAL, Dose: 0, 1500, 3000 PPM IN DIET FOR 103 WK (STUDY DURATION: 105 WK), Dose: 0, 1500, 3000 PPM IN DIET FOR 103 WK (STUDY DURATION: 105 WK), Tumor Site: Type of Lesion: LIVER: HEPATOCELLULAR NEOPLASTIC NODULE OR CARCINOMA) is “equivocal”.
`C[C@@]12CCC[C@H]1[C@@H]1CCc3cc(O)ccc3[C@H]1CC2`: the carcinogen call (Species: HAMSTER, Strain/Sex: SYRIAN/MALE, Route: SUBCUTANEOUS IMPLANT, Dose: 0, 20 MG IN PELLETS IMPLANTED EVERY 2.5 MO FOR 9 MO (STUDY DURATION: 9 MO)) was “inactive; negative”.
`CN1C(=O)C[C@@H](C(=O)N[C@@H](Cc2cnc[nH]2)C(=O)N2CCC[C@H]2C(N)=O)NC1=O`: the carcinogen call is “inactive; negative” (Species: MOUSE, Strain/Sex: CD-1/FEMALE, Route: GAVAGE, Dose: 0, 5, 15, 50 MG/KG 1/D 7 D/WK FOR 104 WK (STUDY DURATION: 104 WK), Dose: 0, 5, 15, 50 MG/KG 1/D 7 D/WK FOR 104 WK (STUDY DURATION: 104 WK)); “inactive; negative” (Species: MOUSE, Strain/Sex: CD-1/MALE, Route: GAVAGE, Dose: 0, 5, 15, 50 MG/KG 1/D 7 D/WK FOR 104 WK (STUDY DURATION: 104 WK), Dose: 0, 5, 15, 50 MG/KG 1/D 7 D/WK FOR 104 WK (STUDY DURATION: 104 WK)); “inactive; negative” (Species: RAT, Strain/Sex: STRAIN-CD/FEMALE, Route: GAVAGE, Dose: 0, 20, 60, 200 MG/KG 1/D 7 D/WK FOR 94 WK (STUDY DURATION: 94 WK), Dose: 0, 20, 60, 200 MG/KG 1/D 7 D/WK FOR 94 WK (STUDY DURATION: 94 WK)); “inactive; negative” (Species: RAT, Strain/Sex: STRAIN-CD/MALE, Route: GAVAGE, Dose: 0, 20, 60, 200 MG/KG 1/D 7 D/WK FOR 90 WK (STUDY DURATION: 90 WK), Dose: 0, 20, 60, 200 MG/KG 1/D 7 D/WK FOR 90 WK (STUDY DURATION: 90 WK)).
Consider `CCN(CC)CCCNC(=O)Cn1ncc(-c2ccccc2)c1-c1ccccc1`, for which the carcinogen call is, setting by setting: (Species: RAT, Strain/Sex: SPRAGUE-DAWLEY/FEMALE, Route: GAVAGE, Dose: 0, 20, 80, 160 MG/KG 1/D FOR 1 YR (STUDY DURATION: 1 YR), Dose: 0, 20, 80, 160 MG/KG 1/D FOR 1 YR (STUDY DURATION: 1 YR)) “inactive; negative”; (Species: RAT, Strain/Sex: SPRAGUE-DAWLEY/MALE, Route: GAVAGE, Dose: 0, 20, 80, 160 MG/KG 1/D FOR 1 YR (STUDY DURATION: 1 YR), Dose: 0, 20, 80, 160 MG/KG 1/D FOR 1 YR (STUDY DURATION: 1 YR)) “inactive; negative”.
As to `[O-][Br+2]([O-])O`, the carcinogen call is “active; positive” (Species: Hamster, Strain/Sex: Syrian golden/Male (20/group), Route: Oral, Dose: 0, 125, 250, 500, 2000 ppm in drinking water for 89 wk, study duration 89 wk, Dose: 0, 125, 250, 500, 2000 ppm in drinking water for 89 wk, study duration 89 wk, Tumor Site: Type of Lesion: Kidney: Renal adenoma (0/20, 0/20, 1/20, 2/20, 4/20)); “active; positive” (Species: Mouse, Strain/Sex: B6C3F1, BDF1, and CDF1/Male (27/experimental group, 15/control group), Route: Oral, Dose: 0, 750 ppm in drinking water for 88 wk, study duration 88 wk, Tumor Site: Type of Lesion: Kidney: Renal adenoma and carcinoma - B6C3F1: 0/15 (controls), 3/26 (750 ppm), BDF1: 0/15 (controls),1/27 (750 ppm), CDF, Tumor Site: Type of Lesion: Kidney: Renal adenoma and carcinoma - B6C3F1: 0/15 (controls), 3/26 (750 ppm), BDF1: 0/15 (controls),1/27 (750 ppm), CDF); “inactive; negative” (Species: Mouse, Strain/Sex: B6C3F1/Female (25/ group), Route: Oral, Dose: 0, 500, 1000 ppm in drinking water for 78 wk, followed by tap water for 26 wk, study duration 104 wk, Dose: 0, 500, 1000 ppm in drinking water for 78 wk, followed by tap water for 26 wk, study duration 104 wk); “inactive; negative (kidney, liver, lung, spleen, thymus, stomach, and intestine examined);” (Species: Mouse, Strain/Sex: Ogg1 wild type/Female (15/15)/(13/15), Route: Oral, Dose: 2 g/l in drinking water for 18 wk followed by 1 g/l in drinking water for 11 wk (Study duration: 52 wk)); “inactive; negative (kidney, liver, lung, spleen, thymus, stomach and intestine examined);” (Species: Mouse, Strain/Sex: Ogg1 wild type/Male (13/15)/(15/15), Route: Oral, Dose: 2 g/l in drinking water for 18 wk followed by 1 g/l in drinking water for 11 wk (Study duration: 52 wk)); “active; positive” (Species: RAT, Strain/Sex: F344/FEMALE, Route: ORAL, Dose: 250, 500 PPM IN DRINKING WATER FOR 110 WK, Tumor Site: Type of Lesion: KIDNEY: RENAL CELL ADENOMA, RENAL CELL ADENOCARCINOMA). The carcinogen call is, setting by setting: (Species: RAT, Strain/Sex: F344/MALE, Route: ORAL, Dose: 0, 0.02, 0.1, 0.2, 0.4 G/L IN DRINKING WATER FOR 52, 78, OR 100 WK (STUDY DURATION: 100 WK), Dose: 0, 0.02, 0.1, 0.2, 0.4 G/L IN DRINKING WATER FOR 52, 78, OR 100 WK (STUDY DURATION: 100 WK), Tumor Site: Type of Lesion: TESTICLE: MESOTHELIOMA, KIDNEY: RENAL CELL TUMOR, THYROID: TUMOR, Tumor Site: Type of Lesion: TESTICLE: MESOTHELIOMA, KIDNEY: RENAL CELL TUMOR, THYROID: TUMOR) “active; positive”; (Species: RAT, Strain/Sex: F344/MALE, Route: ORAL, Dose: 250, 500 PPM IN DRINKING WATER (HIGH DOSE REDUCED TO 400 PPM AT WK 60), Tumor Site: Type of Lesion: KIDNEY: RENAL CELL ADENOMA, RENAL CELL ADENOCARCINOMA, PERITONEAL CAVITY: MESOTHELIOMA) “active; positive”; (Species: Rat, Strain/Sex: F344 (20-41/group), Route: Oral, Dose: 0, 300, 600 mg/kg single intragastric administration, study duration 87 wk, Dose: 0, 300, 600 mg/kg single intragastric administration, study duration 87 wk, Tumor Site: Type of Lesion: Kidney: Renal adenoma and carcinoma (0/20, 0/20, 4/41)) “active; positive”; (Species: Rat, Strain/Sex: F344/Male (14-20/group), Route: Oral, Dose: 500 ppm in drinking water for 13, 26, 39, and 52 wk followed by drinking water for a study duration of 104 wk, Tumor Site: Type of Lesion: Kidney: Adenoma (10/20, 9/19,13/19, 8/14), Adenocarcinoma (2/20, 1/19, 6/19, 3/14). Peritoneum: Mesothelioma (6/20, 8/19) “active; positive”; (Species: Rat, Strain/Sex: F344/Male (20-24/group), Route: Oral, Dose: 0, 15, 30, 60, 125, 250, 500 ppm in drinking water for 104 wk, Dose: 0, 15, 30, 60, 125, 250, 500 ppm in drinking water for 104 wk, Tumor Site: Type of Lesion: Kidney: Renal adenoma (0/19, 0/19, 0/20, 1/24, 5/24, 5/20, 6/20) and adenocarcinoma (0/19, 0/19, 0/20, 0/24, 0/24, 0/20) “active; positive”; (Species: Rat, Strain/Sex: Fischer 344/Female (50/group), Route: Oral, Dose: 0, 10, 30, 50 mg/kg/day by gavage once daily for 104 wk, Dose: 0, 10, 30, 50 mg/kg/day by gavage once daily for 104 wk) “inactive; negative”. Further, the carcinogen call (Species: Rat, Strain/Sex: Fischer 344/Male (50/group), Route: Oral, Dose: 0, 10, 30, 50 mg/kg/day by gavage once daily for 104 wk, Dose: 0, 10, 30, 50 mg/kg/day by gavage once daily for 104 wk) was “inactive; negative”.

The record behind these values is PubChem BioAssay AID1259411 (Chemical Carcinogenesis Research Information System (CCRIS), 2018).
